Measurements from patent US20250122182A1 (Isosterix, Inc., priority 2023, published 2025).

Biological target: Recombinant KAT6A/MOZ (488-778) protein (Homo sapiens (Human), UniProt Q92794)
Assay: KAT6A AlphaLISA Inhibition Screening Assay
Type: biochemical
Settings: for inhibition at 1 µM: read-out: Average Kat6A % inhibition @ 1 μM; for inhibition at 1 µM / Average Kat6A % inhibition @ 1 μM: 1 μM test compound; for inhibition at 10 µM: read-out: Average Kat6A % inhibition @ 10 μM; for inhibition at 10 µM / Average Kat6A % inhibition @ 10 μM: 10 μM test compound
Outline: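 25 nM KAT6A (488-778) pre-incubated 60 or 10 min with compound (10-point, 3-fold from 10 μM), then 400 nM acetyl-CoA and 200 nM biotin-H3(1-21) peptide added for 120 min at RT in pH 8.0 Tris buffer with 330 nM TSA. Acetylation read by AlphaLISA (anti-acetyl-lysine acceptor/streptavidin donor beads); % inhibition vs vehicle.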

Sequence of Recombinant KAT6A/MOZ (488-778) protein (Q92794 488-778): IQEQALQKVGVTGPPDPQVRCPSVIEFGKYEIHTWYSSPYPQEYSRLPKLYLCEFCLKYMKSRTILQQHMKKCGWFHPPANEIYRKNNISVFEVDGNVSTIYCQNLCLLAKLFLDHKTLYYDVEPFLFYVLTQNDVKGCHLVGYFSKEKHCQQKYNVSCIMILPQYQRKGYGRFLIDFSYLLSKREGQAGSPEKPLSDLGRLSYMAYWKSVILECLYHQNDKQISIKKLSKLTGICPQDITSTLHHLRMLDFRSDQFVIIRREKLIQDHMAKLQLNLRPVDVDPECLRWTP

## CC#CC(=O)N1Cc2cnn(Cc3cc(OC)c4c(NS(=O)(=O)c5cc(CC)ccc5OC)noc4c3)c2C1 [Syn. Ex. 11, N-(6-((5-(but-2-ynoyl)-5,6-dihydropyrrolo[3,4-c]pyrazol-1(4H)-yl)methyl)-4-methoxybenzo[d]isoxazol-3-yl)-5-ethyl-2-methoxybenzenesulfonamide]
  inhibition at 1 µM: 100%
  inhibition at 10 µM: 100%

## CCc1ccc(OC)c(S(=O)(=O)Nc2noc3cc(Cn4cc(CNC(=O)NC)cn4)cc(OC)c23)c1 [Syn. Ex. 91, 5-ethyl-2-methoxy-N-(4-methoxy-6-((4-((3-methylureido)methyl)-1H-pyrazol-1-yl)methyl)benzo[d]isoxazol-3-yl)benzenesulfonamide]
  inhibition at 1 µM: 99%
  inhibition at 10 µM: 100%

## C=C(F)C(=O)NCc1cnn(Cc2cc(OC)c3c(NS(=O)(=O)c4cc(CC)ccc4OCC(=N)NO)noc3c2)c1 [Syn. Ex. 118, N-((1-((3-((5-ethyl-2-(2-(hydroxyamino)-2-iminoethoxy)phenyl)sulfonamido)-4-methoxybenzo[d]isoxazol-6-yl)methyl)-1H-pyrazol-4-yl)methyl)-2-fluoroacrylamide]
  inhibition at 1 µM: 97%
  inhibition at 10 µM: 100%

## CCc1ccc(OC)c(S(=O)(=O)Nc2noc3cc(Cn4cc(CNC(=O)[C@@H](C)F)cn4)cc(OC)c23)c1 (single isomer, unassigned) [Syn. Ex. 47a]
  inhibition at 1 µM: 100%
  inhibition at 10 µM: 100%

## CCC(=O)N1Cc2cnn(Cc3cc(OC)c4c(NS(=O)(=O)c5ccccc5OC)noc4c3)c2C1 [Syn. Ex. 3, 2-methoxy-N-(4-methoxy-6-((5-propionyl-5,6-dihydropyrrolo[3,4-c]pyrazol-1(4H)-yl)methyl)benzo[d]isoxazol-3-yl)benzenesulfonamide]
  inhibition at 1 µM: 100%
  inhibition at 10 µM: 100%

## CC#CC(=O)NCc1cnn(Cc2cc(OC)c3c(NS(=O)(=O)c4cc(OC)ccc4OC)noc3c2)c1 [Syn. Ex. 58, N-((1-((3-((2,5-dimethoxyphenyl)sulfonamido)-4-methoxybenzo[d]isoxazol-6-yl)methyl)-1H-pyrazol-4-yl)methyl)but-2-ynamide]
  inhibition at 1 µM: 91%
  inhibition at 10 µM: 97%

## CCc1ccc(OCc2ccc(F)cc2)c(S(=O)(=O)Nc2noc3cc(Cn4cc(CNC(=O)OC)cn4)cc(OC)c23)c1 [Syn. Ex. 122, methyl ((1-((3-((5-ethyl-2-((4-fluorobenzyl)oxy)phenyl)sulfonamido)-4-methoxybenzo[d]isoxazol-6-yl)methyl)-1H-pyrazol-4-yl)methyl)carbamate]
  inhibition at 1 µM: 100%
  inhibition at 10 µM: 100%

## COC(=O)NCc1cnn(Cc2cc3onc(NS(=O)(=O)c4cc(C)cc5cccnc45)c3c3c2CCCO3)c1 [Syn. Ex. 132, methyl ((1-((9-((6-methylquinoline)-8-sulfonamido)-3,4-dihydro-2H-chromeno[8,7-d]isoxazol-5-yl)methyl)-1H-pyrazol-4-yl)methyl)carbamate]
  Average Kat6A % inhibition @ 1 μM: 100%
  Average Kat6A % inhibition @ 10 μM: 99%

## C=C(F)C(=O)NCc1cnn(Cc2cc(OC)c3c(NS(=O)(=O)c4cc(CC)ccc4OCc4ccnc(OC)c4)noc3c2)c1 [Syn. Ex. 94, N-((1-((3-((5-ethyl-2-((2-methoxypyridin-4-yl)methoxy)phenyl)sulfonamido)-4-methoxybenzo[d]isoxazol-6-yl)methyl)-1H-pyrazol-4-yl)methyl)-2-fluoroacrylamide]
  inhibition at 1 µM: 100%
  inhibition at 10 µM: 100%

## C#Cc1ccc(OC)c(S(=O)(=O)Nc2noc3cc(Cn4cc(CNC(=O)OC)cn4)cc(OC)c23)c1 [Syn. Ex. 112, methyl ((1-((3-((5-ethynyl-2-methoxyphenyl)sulfonamido)-4-methoxybenzo[d]isoxazol-6-yl)methyl)-1H-pyrazol-4-yl)methyl)carbamate]
  inhibition at 1 µM: 70%
  inhibition at 10 µM: 98%

## CCc1ccc(S(=O)(=O)Nc2noc3cc(Cn4cc(CNC(=O)OC)cn4)cc(OC)c23)c(OC)c1 [Syn. Ex. 125, methyl ((1-((3-((4-ethyl-2-methoxyphenyl)sulfonamido)-4-methoxybenzo[d]isoxazol-6-yl)methyl)-1H-pyrazol-4-yl)methyl)carbamate]
  inhibition at 1 µM: 100%
  inhibition at 10 µM: 101%

## C=C(F)C(=O)NCc1cnn(Cc2cc(OC)c3c(NS(=O)(=O)c4cc(CC)ccc4OCC(N)=O)noc3c2)c1 [Syn. Ex. 45, N-((1-((3-((2-(2-amino-2-oxoethoxy)-5-ethylphenyl)sulfonamido)-4-methoxybenzo[d]isoxazol-6-yl)methyl)-1H-pyrazol-4-yl)methyl)-2-fluoroacrylamide]
  inhibition at 1 µM: 85%
  inhibition at 10 µM: 99%

## C=C(F)C(=O)NCc1cnn(Cc2cc(OC)c3c(NS(=O)(=O)c4cc(CC)ccc4OCc4cnn[nH]4)noc3c2)c1 [Syn. Ex. 114, N-((1-((3-((2-((1H-1,2,3-triazol-5-yl)methoxy)-5-ethylphenyl)sulfonamido)-4-methoxybenzo[d]isoxazol-6-yl)methyl)-1H-pyrazol-4-yl)methyl)-2-fluoroacrylamide]
  inhibition at 1 µM: 100%
  inhibition at 10 µM: 100%

## C=C(F)C(=O)NCc1cnn(Cc2cc(OC)c3c(NS(=O)(=O)c4cc(CC)ccc4OCc4ccccc4)noc3c2)c1 [Syn. Ex. 92, N-((1-((3-((2-(benzyloxy)-5-ethylphenyl)sulfonamido)-4-methoxybenzo[d]isoxazol-6-yl)methyl)-1H-pyrazol-4-yl)methyl)-2-fluoroacrylamide]
  inhibition at 1 µM: 100%
  inhibition at 10 µM: 100%

## CCc1ccc(OCCC#N)c(S(=O)(=O)Nc2noc3cc(Cn4cc(CNC(=O)OC)cn4)cc(OC)c23)c1 [Syn. Ex. 83, methyl ((1-((3-((2-(2-cyanoethoxy)-5-ethylphenyl)sulfonamido)-4-methoxybenzo[d]isoxazol-6-yl)methyl)-1H-pyrazol-4-yl)methyl)carbamate]
  inhibition at 1 µM: 98%
  inhibition at 10 µM: 99%

## C=CC(=O)NCc1cnn(Cc2cc(OC)c3c(NS(=O)(=O)c4cc(CC)ccc4OC)noc3c2)c1 [Syn. Ex. 42, N-((1-((3-((5-ethyl-2-methoxyphenyl)sulfonamido)-4-methoxybenzo[d]isoxazol-6-yl)methyl)-1H-pyrazol-4-yl)methyl) acrylamide]
  inhibition at 1 µM: 93%
  inhibition at 10 µM: 100%

## COc1cc2c(NS(=O)(=O)c3cc(C)ccc3OC)noc2cc1Cn1cc(CN)cn1 [Syn. Ex. 150, N-(6-((4-(aminomethyl)-1H-pyrazol-1-yl)methyl)-5-methoxybenzo[d]isoxazol-3-yl)-2-methoxy-5-methylbenzenesulfonamide]
  inhibition at 1 µM: 101%
  inhibition at 10 µM: 103%

## C=C(F)C(=O)NCc1cnn(Cc2cc(OC)c3c(NS(=O)(=O)c4cc(OC)ccc4OC)noc3c2)c1 [Syn. Ex. 41, N-((1-((3-((2,5-dimethoxyphenyl)sulfonamido)-4-methoxybenzo[d]isoxazol-6-yl)methyl)-1H-pyrazol-4-yl)methyl)-2-fluoroacrylamide]
  inhibition at 1 µM: 87%
  inhibition at 10 µM: 100%

## CCOc1cc(C)ccc1S(=O)(=O)Nc1noc2cc(Cn3cc(CNC(=O)OC)cn3)cc(OC)c12 [Syn. Ex. 136, methyl ((1-((3-((2-ethoxy-4-methylphenyl)sulfonamido)-4-methoxybenzo[d]isoxazol-6-yl)methyl)-1H-pyrazol-4-yl)methyl)carbamate]
  inhibition at 1 µM: 99%
  inhibition at 10 µM: 99%

## C=C(F)C(=O)NCc1cnn(Cc2cc(OC)c3c(NS(=O)(=O)c4cc(CC)ccc4OCCN)noc3c2)c1 [Syn. Ex. 76, N-((1-((3-((2-(2-aminoethoxy)-5-ethylphenyl)sulfonamido)-4-methoxybenzo[d]isoxazol-6-yl)methyl)-1H-pyrazol-4-yl)methyl)-2-fluoroacrylamide]
  inhibition at 1 µM: 74%
  inhibition at 10 µM: 96%

## CCc1ccc(OC)c(S(=O)(=O)Nc2noc3cc(Cn4cc(CNC(=O)OCCNC(C)=O)cn4)cc(OC)c23)c1 [Syn. Ex. 48, 2-acetamidoethyl ((1-((3-((5-ethyl-2-methoxyphenyl)sulfonamido)-4-methoxybenzo[d]isoxazol-6-yl)methyl)-1H-pyrazol-4-yl)methyl)carbamate]
  inhibition at 1 µM: 96%
  inhibition at 10 µM: 100%

## CC#CC(=O)N1Cc2cn(Cc3cc(OC)c4c(NS(=O)(=O)c5cc(CC)ccc5OC)noc4c3)nc2C1 [Syn. Ex. 12, N-(6-((5-(but-2-ynoyl)-5,6-dihydropyrrolo[3,4-c]pyrazol-2(4H)-yl)methyl)-4-methoxybenzo[d]isoxazol-3-yl)-5-ethyl-2-methoxybenzenesulfonamide]
  inhibition at 1 µM: 38%
  inhibition at 10 µM: 97%

## C#CC(=O)NCc1cnn(Cc2cc(OC)c3c(NS(=O)(=O)c4cc(CC)ccc4OCCO)noc3c2)c1 [Syn. Ex. 65, N-((1-((3-((5-ethyl-2-(2-hydroxyethoxy)phenyl)sulfonamido)-4-methoxybenzo[d]isoxazol-6-yl)methyl)-1H-pyrazol-4-yl)methyl)propiolamide]
  inhibition at 1 µM: 100%
  inhibition at 10 µM: 100%

## COC(=O)NCc1cnn(Cc2cc(OC)c3c(NS(=O)(=O)c4cccc5c(C)ccnc45)noc3c2)c1 [Syn. Ex. 131, methyl ((1-((4-methoxy-3-((4-methylquinoline)-8-sulfonamido)benzo[d]isoxazol-6-yl)methyl)-1H-pyrazol-4-yl)methyl)carbamate]
  Average Kat6A % inhibition @ 1 μM: 99%
  Average Kat6A % inhibition @ 10 μM: 100%

## C#CC(=O)N1CCc2cnn(Cc3cc(OC)c4c(NS(=O)(=O)c5cc(CC)ccc5OC)noc4c3)c2CC1 [Syn. Ex. 9, 5-ethyl-2-methoxy-N-(4-methoxy-6-((6-propioloyl-5,6,7,8-tetrahydropyrazolo[3,4-d]azepin-1(4H)-yl)methyl)benzo[d]isoxazol-3-yl)benzenesulfonamide]
  inhibition at 1 µM: 61%
  inhibition at 10 µM: 100%
